# Reference: patent publication US7479564B2, “Aryl or heteroaryl fused imidazole compounds as anti-inflammatory and analgesic agents” (RaQualia Pharma Inc., priority 2000, dated 2009)
row,Compound,melting point
1,CCc1nc2cc(C(N)=O)c(Cl)cc2n1-c1ccc(CCOC(=O)NS(=O)(=O)c2ccc(C)cc2)cc1,170 to 175 °C
2,Cc1ccc(S(=O)(=O)NC(=O)OCCc2ccc(-n3c(CCC(=O)c4ccccn4)nc4cc(C(F)(F)F)c(Cl)cc43)cc2)cc1,233.6 °C
3,"CCc1nc2cc(C(=O)NC)c(Cl)cc2n1-c1ccc(CCOC(=O)NS(=O)(=O)c2ccc(C)cc2)cc1 [Example 334, 2-(4-{6CHLORO-2-ETHYL-5-[(METHYLAMINO)CARBONYL]-1H-BENZIMIDAZOL-1-YL}PHENYL)ETHYL (4-METHYLPHENYL)SULFONYLCARBAMATE]",201 to 204 °C
4,Cc1ccc(S(=O)(=O)NC(=O)OCCc2ccc(-n3c(CCC(=O)N4CCCCC4)nc4cc(C(F)(F)F)c(Cl)cc43)cc2)cc1,210 °C
5,"CCc1nc2c(C)cc(C)nc2n1-c1ccc(CC(C)OC(=O)NS(=O)(=O)c2ccc(C)cc2)cc1 (stereo not shown) [Example 7, 2-[4-(2-ETHYL-5,7-DIMETHYL-3H-IMIDAZO[4,5-b]PYRIDIN-3-YL)PHENYL]-1-METHYLETHYL (4-METHYLPHENYL)SULFONYLCARBAMATE]",108 °C

# The remaining lines, values ahead:
row,melting point,Compound
1,172.7 °C,"CCc1nc2cc(CO)c(Cl)cc2n1-c1ccc(CCOC(=O)NS(=O)(=O)c2ccc(C)cc2)cc1 [Example 337, 2-{4-[6-CHLORO-2-ETHYL-5-(HYDROXYMETHYL)-1H-BENZIMIDAZOL-1-YL]PHENYL}ETHYL (4-METHYLPHENYL)SULFONYLCARBAMATE]"
2,98 to 105 °C,"Cc1ccc(S(=O)(=O)NC(=O)OCCc2ccc(-n3c(CCC(=O)N4CCCC4)nc4cc(C(F)(F)F)c(Cl)cc43)cc2)cc1 [Example 363, 2-{4-[6-CHLORO-2-[3-OXO-3-(1-PYRROLIDINYL)PROPYL]-5-(TRIFLUOROMETHYL)-1H-BENZIMIDAZOL-1-YL]PHENYL}ETHYL (4-METHYLPHENYL)SULFONYLCARBAMATE]"
3,85 to 90 °C,Cc1ccc(S(=O)(=O)NC(=O)OCCc2ccc(-n3c(CCCN4CCCC4=O)nc4cc(C(F)(F)F)c(Cl)cc43)cc2)cc1
4,174.5 °C,CCc1nc2cc(COC)c(Cl)cc2n1-c1ccc(CCOC(=O)NS(=O)(=O)c2ccc(C)cc2)cc1
5,89 to 95 °C,Cc1ccc(S(=O)(=O)NC(=O)OCCc2ccc(-n3c(CCC(=O)c4cccnc4)nc4cc(C(F)(F)F)c(Cl)cc43)cc2)cc1
